From PubChem BioAssay (NCI) come the findings set out here.

Test systems include CAKI-1 renal; EKVX NSCLC; HS 578T breast; K-562 leukemia; LOX IMVI melanoma; MDA-MB-435; NCI-H460 lung; OVCAR-3 ovarian; SF-539 CNS; SNB-19 CNS; SR leukemia; SW-620 colon; T-47D breast.
What all share (test): growth of human tumour cells (NCI), 48 h

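In this assay, cells in 96-well plates receive the compound at five concentrations for 48 hours. Endpoints are linearly interpolated between the surrounding concentrations. Here, GI50 denotes the concentration required for 50% inhibition of growth. The concentration for full growth arrest is given as TGI.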 A value given as a limit tells only on which side of the number the result lay.

Turning to `S=C(N/N=C(\c1ccccc1)c1ccccn1)NC1CCCCC1`, the TGI in the assay on CAKI-1 renal is above 100 µM; in the assay with EKVX NSCLC it was above 100 µM; in the assay on HS 578T breast, above 100 µM; in the assay with K-562 leukemia, above 100 µM; with LOX IMVI melanoma it was 23.6 µM; in the assay with MDA-MB-435 it was above 100 µM. The TGI in the assay on NCI-H460 lung, in the assay on OVCAR-3 ovarian, in the assay on SF-539 CNS, in the assay on SNB-19 CNS, with SR leukemia and in the assay with SW-620 colon was above 100 µM in each case. In addition, the TGI in the assay on T-47D breast was above 100 µM.

As to `CSc1nc(C)cc(Nc2ccc(O)c(CN3CCOCC3)c2)n1`, the TGI with CAKI-1 renal, in the assay on EKVX NSCLC, with HS 578T breast, with K-562 leukemia, with LOX IMVI melanoma and in the assay on MDA-MB-435 was above 100 µM throughout. In addition, the TGI with NCI-H460 lung, in the assay on OVCAR-3 ovarian, in the assay on SF-539 CNS, in the assay with SNB-19 CNS, in the assay on SR leukemia and with SW-620 colon was above 100 µM in each case. The molecule also had a TGI in the assay with T-47D breast above 100 µM.

For the molecule `COC1CCON1C(=O)c1ccccc1` (stereo unspecified), the TGI in the assay with CAKI-1 renal, in the assay with EKVX NSCLC, with HS 578T breast, in the assay with K-562 leukemia, with LOX IMVI melanoma and in the assay on MDA-MB-435 was above 10 µM in each case. Further, the TGI with NCI-H460 lung, with OVCAR-3 ovarian, with SF-539 CNS, in the assay on SNB-19 CNS, in the assay with SR leukemia and in the assay on SW-620 colon was above 10 µM throughout. In the assay with T-47D breast, the TGI is above 10 µM.

In the case of `CC(Oc1ccccc1Cl)C(=O)NN1C(=O)CC(=O)N(c2ccccc2)C1=S` (stereo unspecified), the TGI in the assay with CAKI-1 renal, in the assay with EKVX NSCLC, with HS 578T breast, in the assay with K-562 leukemia, in the assay on LOX IMVI melanoma and with MDA-MB-435 was above 100 µM in each case. The TGI in the assay on NCI-H460 lung, with OVCAR-3 ovarian, in the assay on SF-539 CNS, in the assay on SNB-19 CNS, in the assay on SR leukemia and in the assay with SW-620 colon was above 100 µM each time. The same molecule registered a TGI with T-47D breast above 100 µM.

As for `CSC1(C)C(=O)Nc2c(OCc3ccccc3)cc([N+](=O)[O-])cc21` (stereo unspecified), the TGI is above 100 µM in the assay on CAKI-1 renal; above 100 µM in the assay on EKVX NSCLC; 32.6 µM in the assay with HS 578T breast; above 100 µM with K-562 leukemia; above 100 µM in the assay on LOX IMVI melanoma; above 100 µM in the assay with MDA-MB-435. Besides, the TGI in the assay on NCI-H460 lung, in the assay on OVCAR-3 ovarian, in the assay on SF-539 CNS, with SNB-19 CNS, with SR leukemia and in the assay with SW-620 colon was above 100 µM throughout. The TGI with T-47D breast is above 100 µM.

Take `CCCCCCCCCCCC(=O)OC[C@H](C[As](=O)(O)O)OC(=O)CCCCCCCCCCC`: the TGI in the assay with CAKI-1 renal was 20.8 µM; in the assay with EKVX NSCLC it was 25.6 µM; in the assay on HS 578T breast it was 8.69 µM; with K-562 leukemia, above 52.5 µM; in the assay with LOX IMVI melanoma it was 23.6 µM; in the assay on MDA-MB-435, 9.5 µM. For the same molecule, the TGI with NCI-H460 lung is 16.9 µM; with OVCAR-3 ovarian, 19.3 µM; with SF-539 CNS it was 38.6 µM; in the assay with SNB-19 CNS, 17.7 µM; with SR leukemia, above 100 µM; in the assay on SW-620 colon, 27.4 µM. Moreover, the TGI in the assay on T-47D breast stood at 47.2 µM.

For `CCOC(=O)C(NC(=O)c1ccccc1)(Nc1ccc(S(=O)(=O)Nc2ncccn2)cc1)C(F)(F)F` (stereo unspecified), the TGI in the assay with CAKI-1 renal, in the assay on EKVX NSCLC, with HS 578T breast, in the assay on K-562 leukemia, in the assay on LOX IMVI melanoma and in the assay on MDA-MB-435 was above 100 µM throughout. The TGI with NCI-H460 lung, in the assay on OVCAR-3 ovarian, in the assay on SF-539 CNS, with SNB-19 CNS, with SR leukemia and in the assay with SW-620 colon was above 100 µM each time. In addition, in the assay with T-47D breast, the TGI was above 100 µM.

In the case of `CC(=O)Oc1cc(S(=O)(=O)Nc2n[nH]c(Nc3ccc(C)cc3)n2)c(S)cc1Cl`, the TGI in the assay with CAKI-1 renal, in the assay with EKVX NSCLC, in the assay on HS 578T breast, with K-562 leukemia, with LOX IMVI melanoma and with MDA-MB-435 was above 100 µM throughout. Besides, the TGI in the assay on NCI-H460 lung, in the assay on OVCAR-3 ovarian, with SF-539 CNS, in the assay on SNB-19 CNS, with SR leukemia and in the assay on SW-620 colon was above 100 µM each time. This molecule also came in with a TGI in the assay on T-47D breast above 100 µM.

As for `CN(C)c1ccc(/C=C/c2ccc(S(N)(=O)=O)cc2)cc1`, the GI50 in the assay with CAKI-1 renal was 50.3 µM; in the assay on HS 578T breast it was 3.03 µM; in the assay on K-562 leukemia, above 100 µM; in the assay on LOX IMVI melanoma it was 18.7 µM; in the assay on MDA-MB-435 it was 7.63 µM; in the assay on SF-539 CNS, 11.7 µM. Also, the GI50 in the assay on SR leukemia is 8.58 µM. Also, the TGI in the assay on CAKI-1 renal is above 100 µM; in the assay on EKVX NSCLC, 52.5 µM; in the assay on HS 578T breast it was 12.6 µM; in the assay on K-562 leukemia, above 100 µM; in the assay on LOX IMVI melanoma, above 100 µM; in the assay with MDA-MB-435 it was 23.7 µM. In addition, the TGI with NCI-H460 lung was above 100 µM; in the assay with OVCAR-3 ovarian it was 49.8 µM; in the assay with SF-539 CNS, 25.6 µM; with SNB-19 CNS, 44.9 µM; in the assay on SR leukemia it was above 100 µM; in the assay with SW-620 colon, 92.9 µM. Moreover, the TGI in the assay with T-47D breast is 80.4 µM.

Turning to `COc1cc2c(c(OC)c1OC)C(=O)[C@@H]1[C@H]2N1C(=O)NCCCl`, the TGI with CAKI-1 renal, in the assay on EKVX NSCLC, in the assay on HS 578T breast, in the assay with K-562 leukemia, in the assay with LOX IMVI melanoma and in the assay with MDA-MB-435 was above 100 µM in each case. For the same molecule, the TGI in the assay with NCI-H460 lung, in the assay with OVCAR-3 ovarian, in the assay on SF-539 CNS, in the assay on SNB-19 CNS, with SR leukemia and with SW-620 colon was above 100 µM throughout. The molecule further gave a TGI with T-47D breast above 100 µM.

In the case of `Cc1cc(Cl)nc2nc(Cl)c(N)cc12`, the TGI in the assay with CAKI-1 renal was 0.871 µM; with EKVX NSCLC, 10.5 µM; in the assay with HS 578T breast, above 24.3 µM; with K-562 leukemia, above 100 µM; with LOX IMVI melanoma, 3.63 µM; in the assay on MDA-MB-435, 4.64 µM. The TGI in the assay on NCI-H460 lung is 5.43 µM; in the assay with OVCAR-3 ovarian, 3.27 µM; in the assay with SF-539 CNS, 30.6 µM; with SNB-19 CNS it was 9.57 µM; in the assay with SR leukemia, above 25.2 µM; in the assay with SW-620 colon it was 4.08 µM. Also, in the assay with T-47D breast, the TGI stood at 15.4 µM.

As to `COC(=O)C1Cc2ccc(O)c(O)c2CN1` (stereo unspecified), the TGI in the assay on CAKI-1 renal was above 100 µM; in the assay on EKVX NSCLC, above 100 µM; in the assay on HS 578T breast, 56 µM; with K-562 leukemia it was 83.6 µM; in the assay on LOX IMVI melanoma, 28.4 µM; with MDA-MB-435 it was 30.5 µM. Further, the TGI in the assay with NCI-H460 lung was above 100 µM; in the assay with OVCAR-3 ovarian, above 100 µM; with SF-539 CNS, 32.5 µM; in the assay on SNB-19 CNS, above 100 µM; in the assay with SR leukemia it was 82.2 µM; in the assay with SW-620 colon it was 40.7 µM. In the assay with T-47D breast, this molecule gave a TGI above 100 µM.

As to `COc1cc(-c2nc3ccc(N4CCN(C)CC4)cc3[nH]2)c(OC)c2[nH]c(COC(C)=O)nc12`, the TGI with CAKI-1 renal was above 100 µM; in the assay with EKVX NSCLC, above 100 µM; with HS 578T breast, above 100 µM; in the assay with K-562 leukemia, above 100 µM; with LOX IMVI melanoma it was 96.4 µM; with MDA-MB-435, above 100 µM. Further, the TGI with NCI-H460 lung is above 100 µM; in the assay with OVCAR-3 ovarian, above 100 µM; in the assay on SF-539 CNS, above 100 µM; in the assay on SNB-19 CNS, above 100 µM; with SR leukemia, 73 µM; in the assay with SW-620 colon it was above 100 µM. The molecule also showed a TGI in the assay on T-47D breast above 100 µM.
